Reference: patent publication US20180250284A1, “QUINOLINE DERIVATIVES FOR USE IN TREATING LEUKODYSTROPHY AND TREATMENT METHOD” (GEORG-AUGUST-UNIVERSITÄT GÖTTINGEN STIFTUNG ÖFFENTLICHEN …, priority 2015, published 2018)

Assays:
cuprizone model = conditions: cited from earlier work
[1] = system: Knockout mice (Cnp-Pex5, Cnp1-Cre*PEX5flox/flox, Pex5^flox/flox*Cnp-Cre/+, Nestin-Pex5, NEX-Pex5, GFAP-Pex5^−/−); assay: effect of various doses of laquinimod on Pex5 knockout mice; assay type: in vivo
Description: Knockout mice of one or more of the following strains are used: Cnp-Pex5, Cnp1-Cre*PEX5flox/flox, Pex5^flox/flox*Cnp-Cre/+, Nestin-Pex5, NEX-Pex5, and GFAP-Pex5^−/−.
The effect of various doses of laquinimod on knockout mice is assessed.

[2] = system: multiple sclerosis (MS) patients; conditions: two phase III trials; cited from earlier work
[3] = in vivo; cited from earlier work
EAE model = conditions: cited from earlier work
[4] = system: Cnp-Cre Pex5^fl/fl Rag1^−/− mice; assay: histological and morphological analyses of the corpus callosum at month 6; assay type: in vivo; conditions: 25 mg/kg oral; for extent of demyelination / myelin loss in the corpus callosum: luxol fast blue, vs vehicle/water treated mice
Description: FIG. 2: Quantification of axonal damage (APP), microglia/macrophage cell numbers (Mac3), demyelination and adult oligodendrocytes (NogoA) in the corpus callosum (CC) of CNP-Cre Pex^fl/fl RAG1^−/− mice at the age of 6 months. Cnp-Cre Pex5^fl/fl Rag1^−/− mice were generated by crossbreeding of Cnp-Cre Pex5^fl/fl mice with Rag1^−/− mice. Mice of both sexes received 25 mg/kg Laquinimod or water by oral gavage 6 out 7 days/week and treatment was initiated at the age of 6 weeks. Mice were perfused transcardially at month 6 with cold PBS followed by 4% paraformaldehyde (PFA). Brains and spinal cords were post-fixed for 2 days and then paraffin-embedded. Sections between 0.5-1 μm were cut and processed for immunohistochemistry (IHC) according to standard protocols. Demyelination was evaluated on sections stained with luxol fast blue (LFB). For the staining of macrophages the antibody MAC387 (mouse anti-L1 antibody MAC387, GeneTex, 1:150) was used. Axonal density was evaluated on Bielschowsky silver stained sections. That is, in order to identify the mechanisms how laquinimod is beneficial in the CNP-Cre Pex^fl/fl RAG1^−/− mouse model, we analyzed and quantified the extent of demyelination, axonal damage and macrophage and adult oligodendrocyte numbers in immunohistochemically stained sections of the corpus callosum at month 6 in laquinimod and vehicle treated mice. […] The extent of demyelination was diminished and the numbers of preserved adult oligodendrocytes were increased, see FIG. 2.

[5] = system: Cnp-Cre Pex5^fl/fl Rag1^−/− mice; assay: balanced beam test (motor coordination / walking ability); assay type: in vivo; conditions: 25 mg/kg oral gavage 6 out 7 days/week from age 6 weeks to month 6; vs H2O treated controls; significant from the age of 4 months
Description: Cnp-Cre Pex5^fl/fl Rag1^−/− mice received either H2O (Ctrl, n=18) or laquinimod (25 mg/kg, n=11) at 6 out 7 days/week by oral gavage. Treatment was initiated at the age of 6 weeks. Unpaired t test, **<0.01; ***<0.001. Cnp-Cre Pex5^fl/fl Rag1^−/− mice were generated by crossbreeding of Cnp-Cre Pex5^fl/fl mice with Rag1^−/− mice. Mice of both sexes received 25 mg/kg Laquinimod or water by oral gavage 6 out 7 days/week and treatment was initiated at the age of 6 weeks. Motor coordination was assessed with a balanced beam test. Mice were put on a beam (width 1.5 cm) and allowed to run toward a hiding box. After a training period, the time to pass a distance of 0.6 m was measured (three repeats per time point).

[6] = system: Patients with leukodystrophy; assay: trial of laquinimod in leukodystrophy human patients; assay type: in vivo; conditions: capsules orally once daily
Description: A trial is conducted to evaluate the safety, tolerability and clinical effect of laquinimod in leukodystrophy human patients. Patients with leukodystrophy are enrolled. The patient has been affirmatively diagnosed to have leukodystrophy. […] Capsule(s) containing laquinimod and/or matching placebo are administered orally once daily at dosages approved by the study Safety Committee. Patients are randomized into one of the treatment arms in a ratio that allows for reaching an overall target enrollment.

[7] = system: microglia cells stimulated with 1 μg/ml LPS and 5 mM ATP; assay: IL1β ELISA of supernatants of LPS/ATP stimulated microglia cells; assay type: cell-based; conditions: at high concentrations of laquinimod
Description: FIG. 3: Titration of laquinimod to microglia cells stimulated with 1 μg/ml LPS and 5 mM ATP. Microglia cell supernatants were analyzed for IL1β by ELISA.

Patients with PBD = assay: trial of laquinimod for PBD in human patients; assay type: in vivo
Description: A trial is conducted to evaluate the safety, tolerability and clinical effect of laquinimod for PBD in human patients. Patients with PBD are enrolled. The patient has been affirmatively diagnosed to have PBD. […] Capsule(s) containing laquinimod and/or matching placebo are administered orally once daily at dosages approved by the study Safety Committee. Patients are randomized into one of the treatment arms in a ratio that allows for reaching an overall target enrollment.

[8] = age of 6 months, vs vehicle treated mice
[9] = capsules orally once daily, human patients

CCN(C(=O)c1c(O)c2c(Cl)cccc2n(C)c1=O)c1ccccc1 [laquinimod, 5-chloro-N-ethyl-4-hydroxy-1-methyl-2-oxo-N-phenyl-1,2-dihydroquinoline-3-carboxamide]
demyelination (cuprizone model): reduces | microglia and astrocyte activation (cuprizone model): inhibits | accumulation of lipid droplets and VLCFA, depletion of plasmalogens, impairment of myelin, axonal degeneration, astrogliosis, and/or microgliosis [1]: reduces | cognitive function [1]: improves | hindlimb ataxia, kyphosis, hindlimb paresis, forelimb ataxia, tremor, hindlimb paralysis, and/or passiveness [1]: reduces | motor function [1]: improves | safety and tolerability profile [2]: favorable | oral bioavailability [3]: high | axonal injury (EAE model): reduces | microglia and astrocyte activation (EAE model): inhibits | extent of demyelination / myelin loss in the corpus callosum ([4]; age of 6 months): less extensive | extent of demyelination / myelin loss in the corpus callosum ([4]; age of 6 months, listed as Laquinimod): diminished | axonal damage (APP positive axons) in the corpus callosum [4, 8]: significantly reduced | microglia/macrophage cell numbers (Mac3) in the corpus callosum [4, 8]: significantly reduced | numbers of preserved adult oligodendrocytes (NogoA) in the corpus callosum [4, 8]: increased | microglia activation ([4]; vs water treated controls): reduced | preservation of axons (axonal loss) ([4]; vs water treated controls): better preserved | microglia activation ([4]; vs water treated controls, listed as Laquinimod): less abundant | walking ability / motor coordination on elevated beam test [5]: significantly better | motor symptoms of leukodystrophy [6]: alleviates or eliminates | one or more symptoms of leukodystrophy [6]: alleviates or eliminates | amount of IL1β in LPS stimulated microglia cell cultures [7]: significantly reduced | motor symptoms of PBD (Patients with PBD; [9]): alleviates or eliminates | one or more symptoms of PBD (Patients with PBD; [9]): alleviates or eliminates | symptoms of Zellweger Syndrome (ZS) (Patients with PBD; humans, Example 3.1): alleviates or eliminates | symptoms of Neonatal Adrenoleukodystrophy (NALD) (Patients with PBD; humans, Example 3.2): alleviates or eliminates | symptoms of Infantile Refsum Disease (IRD) (Patients with PBD; humans, Example 3.3): alleviates or eliminates
